Like-named read-outs stand apart in the source and are kept apart here. Marks after values point to notes of the source that are not given here.
How the values were obtained:
OR35a [1] = molecular target: T1, OR35a (Drosophila melanogaster, UniProt Q9V3Q2); assay: CNT-FET sensor, OR35a nanodiscs via his-tag/Ni-NTA (Example 2); assay type: binding; details: for real time source-drain current response: OR35a nanodiscs 1:10, E-2-hexenal at 64 pM, methyl hexanoate 70 nM to 500 μM
T1 sequence (Q9V3Q2 1-409): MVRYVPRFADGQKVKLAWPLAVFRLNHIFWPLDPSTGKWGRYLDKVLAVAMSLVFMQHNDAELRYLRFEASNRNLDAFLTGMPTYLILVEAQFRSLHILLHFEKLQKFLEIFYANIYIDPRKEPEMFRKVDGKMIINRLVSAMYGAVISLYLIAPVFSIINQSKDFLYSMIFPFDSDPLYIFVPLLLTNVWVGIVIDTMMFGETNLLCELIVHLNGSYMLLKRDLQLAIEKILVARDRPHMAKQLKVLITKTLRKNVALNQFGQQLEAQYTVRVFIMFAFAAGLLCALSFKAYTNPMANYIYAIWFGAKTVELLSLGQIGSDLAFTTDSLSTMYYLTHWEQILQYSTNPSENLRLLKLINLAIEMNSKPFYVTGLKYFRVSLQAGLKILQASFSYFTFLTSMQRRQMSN

OR35a [2] = molecular target: T1, OR35a; assay: EIS sensor, Or35a nanodiscs on gold electrode (Example 4); assay type: binding
Or22a = molecular target: T2, Or22a (Drosophila melanogaster, UniProt P81909); assay: QCM-D sensor with Or22a liposomes (Example 6); assay type: binding; details: 1.6 to 200 μM
T2 sequence (P81909 1-397): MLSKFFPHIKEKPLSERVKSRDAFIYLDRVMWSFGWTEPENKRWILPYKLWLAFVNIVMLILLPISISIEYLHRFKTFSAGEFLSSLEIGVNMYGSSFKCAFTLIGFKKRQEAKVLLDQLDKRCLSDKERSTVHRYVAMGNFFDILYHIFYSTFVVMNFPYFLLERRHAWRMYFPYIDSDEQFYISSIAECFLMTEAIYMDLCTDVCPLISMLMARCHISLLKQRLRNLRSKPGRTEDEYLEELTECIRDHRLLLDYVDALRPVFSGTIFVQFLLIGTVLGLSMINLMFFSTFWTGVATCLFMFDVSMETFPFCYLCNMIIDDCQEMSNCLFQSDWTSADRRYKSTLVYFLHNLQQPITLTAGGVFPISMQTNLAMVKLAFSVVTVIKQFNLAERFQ
Description: Gold (100 nm) sensor crystals were sonicated in ethanol and milli-Q water for 15 minutes each respectively. A 5:1:1 volume ratio of milli-Q water, ammonia (25%), and hydrogen peroxide (30%) was heated to 75° C. for 5 minutes and the sonicated crystals were placed in the heated solution for 5 minutes. Then the crystals were removed from the solution and rinsed with milli-Q water before drying with nitrogen gas. The clean gold crystals were thiol-functionalized by exposing them to 2 mM ethanolic solution of MHA overnight followed by washing with ethanol solution in order to remove excess or loosely bound molecules.

DmOr22a/Orco = molecular target: T3, DmOr22a/Orco (Drosophila melanogaster, UniProt P81909); details: cited from earlier work; for Sensitivity limit (Log): given as Log, estimated visually from graph
T3 sequence (P81909 1-397): T2 sequence (P81909 1-397)
T3 sequence (Q9VNB5 1-486 partner): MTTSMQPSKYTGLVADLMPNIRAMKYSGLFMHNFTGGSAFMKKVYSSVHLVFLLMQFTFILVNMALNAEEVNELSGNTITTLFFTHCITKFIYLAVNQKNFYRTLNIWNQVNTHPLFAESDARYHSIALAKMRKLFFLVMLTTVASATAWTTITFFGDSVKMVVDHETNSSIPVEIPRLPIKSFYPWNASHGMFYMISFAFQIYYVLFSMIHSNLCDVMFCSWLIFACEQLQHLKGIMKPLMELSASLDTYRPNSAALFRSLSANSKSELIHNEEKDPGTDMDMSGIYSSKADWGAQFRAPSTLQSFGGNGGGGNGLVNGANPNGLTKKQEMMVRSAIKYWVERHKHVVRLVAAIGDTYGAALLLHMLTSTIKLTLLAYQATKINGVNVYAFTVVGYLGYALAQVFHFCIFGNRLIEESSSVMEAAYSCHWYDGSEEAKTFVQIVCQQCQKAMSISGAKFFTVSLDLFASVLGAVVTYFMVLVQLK

OR71a = molecular target: T4, OR71a (Drosophila melanogaster, UniProt Q9VUK5); assay: EIS sensor, Or71a liposomes on gold electrode, optimized conditions (Example 5); assay type: binding
T4 sequence (Q9VUK5 1-378): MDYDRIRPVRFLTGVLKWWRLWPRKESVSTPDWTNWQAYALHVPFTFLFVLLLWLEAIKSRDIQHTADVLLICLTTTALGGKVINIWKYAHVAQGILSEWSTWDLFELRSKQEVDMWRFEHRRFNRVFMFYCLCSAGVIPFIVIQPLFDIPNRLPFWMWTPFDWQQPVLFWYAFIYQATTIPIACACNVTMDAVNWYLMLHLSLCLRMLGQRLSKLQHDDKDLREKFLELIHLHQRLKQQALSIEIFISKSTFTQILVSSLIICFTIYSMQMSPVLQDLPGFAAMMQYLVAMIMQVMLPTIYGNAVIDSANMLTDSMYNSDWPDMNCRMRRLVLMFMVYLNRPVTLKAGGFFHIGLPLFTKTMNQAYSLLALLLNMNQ

For `CCC/C=C/C=O` [E2-hexenal], the “concentration to which the sensor demonstrates a response in real time” value (OR35a [1]; OR35a nanodisc functionalized CNT FET) was 64 pM, the “real time source-drain current response” value (OR35a [1]) was “immediate large decrease” and the ΔI/I0 change (OR35a [1]; at 64 pM, OR35a nanodiscs 1:10 dilution) was 10%. The EC50 (OR35a [1]; present study, Table 4) was roughly 0.3 nM, the Sensitivity limit (OR35a [1]; present study, Table 4) was 0.001 pM and the “concentration at which clear electronic response starts” value (OR35a [1]; real time current measurement mode) was 1 fM. For the same compound, the LOD (OR35a [2]; EIS) was less than 1 fM.
For `CCCCCC(=O)OC` [methyl hexanoate], the “real time source-drain current response” value (OR35a [1]) is listed as “no clear response”, the “change in oscillation frequency” value (Or22a) is listed as “increase in the frequency” and the “Sensitivity limit (Log)” value (DmOr22a/Orco; ref 23) is listed as “Log = −7.5*”. For the same compound, the EC50 (DmOr22a/Orco; ref 24) was 1170 nM and the “Sensitivity limit (Log)” value (DmOr22a/Orco; ref 24) was “Log = −7*”.
In the case of `COC(=O)c1ccccc1O` [methyl salicylate], the “EIS response to control ligand” value (OR35a [2]) is reported as “does not respond” and the “EIS response to control ligand” value (OR71a) is reported as “do not respond”.

Reference: patent publication US12044651B2, “Sensor device and methods” (SCENTIAN BIO LIMITED, priority 2016, dated 2024)
